In patent US10703764B2, “Benzopiperazine compositions as BET bromodomain inhibitors” (FORMA Therapeutics, Inc., priority 2013, dated 2020):

Assays:
BRD4 BD1 = biological target: T1, BRD4 BD1 (Homo sapiens, UniProt O60885); experiment: AlphaScreen binding assay, BRD4 Bromodomain 1
T1 construct: made in house
Outline: (§1)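 Compound dilution series were mixed with His-tagged BRD4 bromodomain and biotinylated tetra-acetylated H4 (1-21) peptide at pH 7.3 (BD1 and peptide at 50 nM, BD2 and peptide at 100 nM). Donor and acceptor beads were then added, and plates were equilibrated at least 1 h before reading. IC50 values were fitted with a four-parameter logistic model.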

BRD4 BD2 = biological target: T2, BRD4 BD2 (Homo sapiens, UniProt O60885); experiment: AlphaScreen binding assay, BRD4 Bromodomain 2
T2 construct: made in house
Outline: as §1

MV4-11 cells = experiment: Oncology cell growth assay (3-day proliferation, CellTiter-Glo); type: cell-based; conditions: Homo sapiens, MV4-11, 72 h, AML cell line MV4-11, 72 hours, compounds grouped by IC50 range, read-out: MV4-11 IC50 (inhibition of proliferation, gIC50)
Outline: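 Compounds were serially diluted 3-fold in DMSO, giving final well concentrations from 10 down to 0.0045 μM. MV4-11 cells were then seeded at 3000 cells/well in RPMI 1640 with 10% FBS and incubated 72 hours. CellTiter-Glo signal was measured and gIC50 obtained by four-parameter logistic regression.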

IC50 (BRD4 BD1) | IC50 (BRD4 BD2) | IC50 (MV4-11 cells) | Structure (SMILES)
0.1 to 1 µM | < 0.05 µM | 0.1 to 0.5 µM | CC(=O)N1c2ccc(-c3ccc(N4CCOCC4)cc3)cc2N(C(=O)c2ccco2)C[C@@H]1C [Example I-850]
0.1 to 1 µM | < 0.05 µM | 0.1 to 0.5 µM | CC(=O)N1c2ccc(-c3ccc(N4CCN(C)CC4)cc3)cc2N(C(=O)c2ccco2)C[C@@H]1C [Example I-874]
0.1 to 1 µM | < 0.05 µM | 0.1 to 0.5 µM | CC(=O)N1c2ccc(-c3ccc(N4CCCS4(=O)=O)cc3)cc2N(C(=O)Oc2ccc(F)cc2F)C[C@@H]1C [Example I-1011]
0.1 to 1 µM | 0.05 to 0.5 µM | 0.1 to 0.5 µM | CC(=O)N1c2ccc(-c3ccc(NS(C)(=O)=O)cc3)cc2N(C(=O)Oc2ccc(F)cc2F)C[C@@H]1C [Example I-1013]
0.1 to 1 µM | 0.05 to 0.5 µM | 0.1 to 0.5 µM | CC(=O)N1c2ccc(-c3cnn(CCO)c3)cc2N(C(=O)Oc2ccc(F)cc2)C[C@@H]1C [Example I-1015]
< 0.1 µM | < 0.05 µM | 0.1 to 0.5 µM | CC(=O)N1c2ccc(-c3cnn(CCC#N)c3)cc2N(C(=O)Oc2ccc(F)cc2)C[C@@H]1C [Example I-1018]
0.1 to 1 µM | < 0.05 µM | 0.1 to 0.5 µM | CC(=O)N1c2ccc(-c3ccc(NS(C)(=O)=O)cc3)cc2N(C(=O)Oc2ccc(F)cc2)C[C@@H]1C [Example I-1019]
0.1 to 1 µM | < 0.05 µM | 0.1 to 0.5 µM | CC(=O)N1c2ccc(-c3cnn(C(C)(C)CO)c3)cc2N(C(=O)Oc2ccc(F)cc2)C[C@@H]1C [Example I-1020]
0.1 to 1 µM | 0.05 to 0.5 µM | < 0.1 µM | CC(=O)N1c2ccc(-c3ccc(N4CCCS4(=O)=O)cc3)cc2N(C(=O)Oc2ccc(F)cc2)C[C@@H]1C [Example I-1021]
0.1 to 1 µM | < 0.05 µM | > 0.5 µM | COC(=O)N1c2ccc(-c3cnn(CC(C)(C)O)c3)cc2N(C(=O)Oc2ccc(F)cc2)C[C@@H]1C [Example I-1023]
0.1 to 1 µM | < 0.05 µM | 0.1 to 0.5 µM | COC(=O)N1c2ccc(-c3cnn(C(C)(C)CO)c3)cc2N(C(=O)Oc2ccc(F)cc2)C[C@@H]1C [Example I-1024]
0.1 to 1 µM | < 0.05 µM | > 0.5 µM | COC(=O)N1c2ccc(-c3cnn(CCC#N)c3)cc2N(C(=O)Oc2ccc(F)cc2)C[C@@H]1C [Example I-1025]
0.1 to 1 µM | 0.05 to 0.5 µM | 0.1 to 0.5 µM | CC(=O)N1c2ccc(-c3ccc4c(c3)CCN4S(C)(=O)=O)cc2N(C(=O)Oc2ccc(F)cc2)C[C@@H]1C [Example I-1026]
1 to 10 µM | 0.05 to 0.5 µM | 0.1 to 0.5 µM | CCS(=O)(=O)c1ccc(-c2ccc3c(c2)N(C(=O)C2CC2)C[C@H](C)N3C(C)=O)cc1 [Example I-1027]
1 to 10 µM | 0.05 to 0.5 µM | > 0.5 µM | CCS(=O)(=O)c1ccc(-c2ccc3c(c2)N(C(=O)C2CCC2)C[C@H](C)N3C(C)=O)cc1 [Example I-1028]
1 to 10 µM | 0.05 to 0.5 µM | 0.1 to 0.5 µM | CCOC(=O)N1C[C@H](C)N(C(C)=O)c2ccc(-c3ccc(S(=O)(=O)CC)cc3)cc21 [Example I-1029]

Continued, molecule first:

Structure (SMILES) | IC50 (BRD4 BD1) | IC50 (BRD4 BD2) | IC50 (MV4-11 cells)
CC(=O)N1c2ccc(-c3cccc(S(N)(=O)=O)c3)cc2N(C(=O)c2ccco2)C[C@@H]1C [Example I-841] | 1 to 10 µM | < 0.05 µM | 0.1 to 0.5 µM
CC(=O)N1c2ccc(-c3ccc4cnn(C)c4c3)cc2N(C(=O)c2ccco2)C[C@@H]1C [Example I-843] | 0.1 to 1 µM | < 0.05 µM | 0.1 to 0.5 µM
CC(=O)N1c2ccc(-c3cccc(NS(C)(=O)=O)c3)cc2N(C(=O)c2ccco2)C[C@@H]1C [Example I-844] | 0.1 to 1 µM | < 0.05 µM | 0.1 to 0.5 µM
CC(=O)N1c2ccc(-c3cccc(S(=O)(=O)N(C)C)c3)cc2N(C(=O)c2ccco2)C[C@@H]1C [Example I-845] | 0.1 to 1 µM | 0.05 to 0.5 µM | 0.1 to 0.5 µM
CC(=O)N1c2ccc(-c3cccc(C(=O)N(C)C)c3)cc2N(C(=O)c2ccco2)C[C@@H]1C [Example I-848] | 0.1 to 1 µM | < 0.05 µM | 0.1 to 0.5 µM
CC(=O)N1c2ccc(-c3cccc4c3OCO4)cc2N(C(=O)c2ccco2)C[C@@H]1C [Example I-849] | 0.1 to 1 µM | 0.05 to 0.5 µM | > 0.5 µM
CC(=O)N1c2ccc(-c3ccc4c(cnn4C)c3)cc2N(C(=O)c2ccco2)C[C@@H]1C [Example I-852] | 0.1 to 1 µM | 0.05 to 0.5 µM | 0.1 to 0.5 µM
CC(=O)N1c2ccc(-c3cccc(-n4nc(C)cc4C)c3)cc2N(C(=O)c2ccco2)C[C@@H]1C [Example I-857] | 0.1 to 1 µM | < 0.05 µM | > 0.5 µM
CC(=O)N1c2ccc(-c3cccc(NS(=O)(=O)c4ccc(C)cc4)c3)cc2N(C(=O)c2ccco2)C[C@@H]1C [Example I-859] | 0.1 to 1 µM | < 0.05 µM | 0.1 to 0.5 µM
CC(=O)N1c2ccc(-c3ccc(NS(=O)(=O)c4ccc(C)cc4)cc3)cc2N(C(=O)c2ccco2)C[C@@H]1C [Example I-860] | 0.1 to 1 µM | < 0.05 µM | < 0.1 µM
CC(=O)N1c2ccc(-c3ccnc(N4CCOCC4)c3)cc2N(C(=O)c2ccco2)C[C@@H]1C [Example I-862] | 0.1 to 1 µM | 0.05 to 0.5 µM | > 0.5 µM
COc1cc(-c2ccc3c(c2)N(C(=O)c2ccco2)C[C@H](C)N3C(C)=O)ccn1 [Example I-863] | 1 to 10 µM | 0.05 to 0.5 µM | > 0.5 µM
CC(=O)N1c2ccc(-c3ccc4cnccc4c3)cc2N(C(=O)c2ccco2)C[C@@H]1C [Example I-864] | 0.1 to 1 µM | 0.05 to 0.5 µM | 0.1 to 0.5 µM
CC(=O)N1c2ccc(-c3ccc4scnc4c3)cc2N(C(=O)c2ccco2)C[C@@H]1C [Example I-865] | 0.1 to 1 µM | < 0.05 µM | 0.1 to 0.5 µM
CC(=O)N1c2ccc(-c3cccc(N4CCCCC4)c3)cc2N(C(=O)c2ccco2)C[C@@H]1C [Example I-867] | 1 to 10 µM | 0.05 to 0.5 µM | > 0.5 µM
CNC(=O)c1cccc(-c2ccc3c(c2)N(C(=O)c2ccco2)CCN3C(C)=O)c1 [Example I-868] | > 10 µM | > 0.5 µM | > 0.5 µM
CC(=O)N1c2ccc(-c3ccc(N(C)C)cc3)cc2N(C(=O)c2ccco2)C[C@@H]1C [Example I-871] | 0.1 to 1 µM | < 0.05 µM | 0.1 to 0.5 µM

Structure (SMILES) | IC50 (BRD4 BD1) | IC50 (BRD4 BD2) | IC50 (MV4-11 cells)
CC(=O)N1c2ccc(-c3ccc(C)s3)cc2N(C(=O)c2ccco2)C[C@@H]1C [Example I-872] | 0.1 to 1 µM | < 0.05 µM | 0.1 to 0.5 µM
CNS(=O)(=O)c1ccc(-c2ccc3c(c2)N(C(=O)c2ccco2)C[C@H](C)N3C(C)=O)cc1 [Example I-875] | 0.1 to 1 µM | < 0.05 µM | 0.1 to 0.5 µM
CCS(=O)(=O)Nc1cccc(-c2ccc3c(c2)N(C(=O)c2ccco2)C[C@H](C)N3C(C)=O)c1 [Example I-876] | 0.1 to 1 µM | < 0.05 µM | 0.1 to 0.5 µM
CNC(=O)N1c2ccc(-c3ccc(S(C)(=O)=O)cc3)cc2N(C(=O)c2ccco2)C[C@@H]1C [Example I-988] | 1 to 10 µM | 0.05 to 0.5 µM | > 0.5 µM
CC(=O)N1c2ccc(-c3cnn(C4CC4)c3)cc2N(C(=O)OCC2CC2)C[C@@H]1C [Example I-994] | 0.1 to 1 µM | 0.05 to 0.5 µM | 0.1 to 0.5 µM
C[C@H]1CN(C(=O)OCC2CC2)c2cc(-c3cnn(C4CC4)c3)ccc2N1C(=O)C1CC1 [Example I-995] | 0.1 to 1 µM | 0.05 to 0.5 µM | 0.1 to 0.5 µM
COC(=O)N1c2ccc(-c3cnn(C4CC4)c3)cc2N(C(=O)OCC2CC2)C[C@@H]1C [Example I-996] | 0.1 to 1 µM | > 0.5 µM | > 0.5 µM
CC(=O)N1c2ccc(-c3cnn(C4CC4)c3)cc2N(C(=O)OC2COC2)C[C@@H]1C [Example I-997] | 0.1 to 1 µM | 0.05 to 0.5 µM | 0.1 to 0.5 µM
CC(=O)N1c2ccc(-c3cnn(C4CC4)c3)cc2N(C(=O)OC2CCOCC2)C[C@@H]1C [Example I-1000] | < 0.1 µM | 0.05 to 0.5 µM | 0.1 to 0.5 µM
C[C@H]1CN(C(=O)OC2CCOCC2)c2cc(-c3cnn(C4CC4)c3)ccc2N1C(=O)C1CC1 [Example I-1001] | 0.1 to 1 µM | 0.05 to 0.5 µM | 0.1 to 0.5 µM
COC(=O)N1c2ccc(-c3cnn(C4CC4)c3)cc2N(C(=O)OC2CCOCC2)C[C@@H]1C [Example I-1002] | 0.1 to 1 µM | 0.05 to 0.5 µM | 0.1 to 0.5 µM
CC(=O)N1c2ccc(-c3cnn(C4CC4)c3)cc2N(C(=O)OC2CCC2)C[C@@H]1C [Example I-1003] | < 0.1 µM | 0.05 to 0.5 µM | < 0.1 µM
COC(=O)N1c2ccc(-c3cnn(C4CC4)c3)cc2N(C(=O)OC2CCC2)C[C@@H]1C [Example I-1005] | 0.1 to 1 µM | 0.05 to 0.5 µM | 0.1 to 0.5 µM
CC(=O)N1c2ccc(-c3cnn(CCC#N)c3)cc2N(C(=O)Oc2ccc(F)cc2F)C[C@@H]1C [Example I-1012] | 0.1 to 1 µM | < 0.05 µM | 0.1 to 0.5 µM
CC(=O)N1c2ccc(-c3cnn(C(C)(C)CO)c3)cc2N(C(=O)Oc2ccc(F)cc2F)C[C@@H]1C [Example I-1014] | 0.1 to 1 µM | < 0.05 µM | 0.1 to 0.5 µM
CCS(=O)(=O)c1ccc(-c2ccc3c(c2)N(C(=O)OC(C)C)C[C@H](C)N3C(C)=O)cc1 [Example I-1030] | 0.1 to 1 µM | 0.05 to 0.5 µM | 0.1 to 0.5 µM
